Test results published in article PMC5335257, “Promoting in vivo remyelination with small molecules: a neuroreparative pharmacological treatment for Multiple Sclerosis” (Scientific Reports, 2017).

Assays:
[1] = system: OPCs from P0 mice; assay: Proliferation assay (BrdU incorporation); type: cell-based, mouse; conditions: murine P0 OPCs, 1 μM, 72 h
Description: We isolated OPCs, as previously described. Briefly, a stock papain solution was prepared containing ([…]; Worthington Biochemical), L-cysteine (0.2 mg/ml; Sigma), and EDTA (0.2 mg/ml; Sigma) in Hank’s Balanced Salt Solution (HBSS; Invitrogen) without Ca^2+ and Mg[2]. Then, the cerebral cortices of P0 CD1 mice were dissected out and placed for 5 minutes at 37 °C in a medium containing the stock papain solution in HBSS with Ca^2+ and Mg^2+ (1:10; Invitrogen) in order to easily remove the meninges. […] The resulting enriched oligodendrocyte progenitor cell suspension was counted and seeded.
OPCs were placed on coverslips coated with poly-L-lysine (Sigma) and laminin (Sigma; 2 × 10^4 cells/well) and they were incubated with the inhibitors (VP3.15 or TDZD8; 1 μM) in the serum free medium described above. After 42 h in culture, BrdU (50 μM; Sigma) was added for 6 h and after a total of 72 h in culture, the cells were fixed and BrdU incorporation was detected by immunocytochemistry (1:20; G3G4, HybridomaBank) combined with the detection of the oligodendroglial marker Olig2 (1:250; Millipore; Cat#AB9610). […]

[2] = system: cerebellar slices demyelinated with LPC; assay: Ex vivo remyelination in cerebellar slice cultures demyelinated with LPC; type: cell-based, CD1 P7 mice; conditions: 5 μM, 3 days post lesion (3DPL)
Description: The protocol used was modified from previously described. CD1 P7 mice were decapitated, and their cerebella were dissected into ice-cold HBSS (Invitrogen). 300 μm sagittal slices of cerebellum were cut using a McIllwain tissue chopper, placed on Millicell-CM organotypic culture inserts (3 slices per insert; Millipore) in a medium containing HBSS:BME: horse serum (1:2:1, Invitrogen), 28 mM D (+) - glucose (Normapur), […] L-Glutamine (Invitrogen) and 100 U/mL penicillin, 0.1 mg/mL streptomycin and 0.25 μg/ml Amphotericin B antibiotic anti-mycotic solution (Sigma) and maintained at 5% CO2 and 37 °C. Medium was changed every two days, and after 7 days in culture, demyelination was induced by addition of 0.5 mg/ml LPC (Sigma) to the medium for 15 h. After that, slices were treated with fresh medium containing PDE7-GSK3 or GSK3 inhibitors (VP1.15, VP3.15 or TDZD8; 5 μM). Cultures were maintained for 1 or 3 days post lesion (DPL), and then fixed for 40 minutes and immunostained with anti-MBP antibodies (myelin basic protein –as a marker of myelin; 1:200; Serotec; Cat#MCA4095) and anti-neurofilament antibody (as a marker of axons; 1:200; Abcam; Cat#ab8135). Fluorescence images were taken on a confocal SP5 resonant scanner (Leica Microsystems) at 1μm intervals in white matter areas at x40 magnification. The photographs were merged and co-localisation of both markers was quantified with Image J software using the colocalization highlighter plugin. This measurement was related to the area occupied by axons (neurofilament staining) and normalized with control values showing the data as the mean normalized myelination index ± SEM. Quantification was made in at least three independent experiments.

[3] = system: PDE7; parameters: method as in PMID 24437940; conditions: cited from earlier work
[4] = system: OPCs from P0 mice; assay: Survival assay (Casp3+-A2B5+ cells); type: cell-based, mouse; conditions: murine P0 OPCs, 1 μM, 2 DIV
Description: We isolated OPCs, as previously described. Briefly, a stock papain solution was prepared containing ([…]; Worthington Biochemical), L-cysteine (0.2 mg/ml; Sigma), and EDTA (0.2 mg/ml; Sigma) in Hank’s Balanced Salt Solution (HBSS; Invitrogen) without Ca^2+ and Mg[2]. Then, the cerebral cortices of P0 CD1 mice were dissected out and placed for 5 minutes at 37 °C in a medium containing the stock papain solution in HBSS with Ca^2+ and Mg^2+ (1:10; Invitrogen) in order to easily remove the meninges. Once meninges and choroid plexus were removed, the tissue was enzymatically dissociated for 5 minutes at 37 °C again by using the papain solution (1:10 in HBSS without Ca^2+ and Mg^2+) and the digested tissue was then filtered through a 100 μm nylon mesh strainer (BD Biosciences) and seeded on poly-L-ornithine-coated (Sigma) 75 cm^2 flasks in DMEM medium (Invitrogen) containing 10% foetal bovine serum (FBS; BioWhittaker) and 100 U/mL penicillin, 0.1 mg/mL streptomycin and 0.25 μg/ml Amphotericin B antibiotic antimycotic solution (Sigma). Cultures were maintained at 37 °C and 5% CO2, and the medium was changed every 3 days. […] The resulting enriched oligodendrocyte progenitor cell suspension was counted and seeded. […]

[5] = system: adult human OPCs; assay: Differentiation assay, adult human OPCs; type: cell-based; conditions: adult human OPCs, 1 μM, 5 DIV
Description: Human brain samples were obtained from adult patients of temporal lobe epilepsy resistant to pharmacological treatment or traumatic brain injury; they underwent surgical treatment by the Neurosurgery Service at the Hospital Universitario de La Princesa (Madrid, Spain) and Hospital 12 de Octubre (Madrid, Spain). All tissue samples were obtained under protocols approved by the Research Ethics Committee of Toledo (Spain) review boards. All were conducted in accordance with the Helsinki Declaration and were approved by the Research Ethics Committee of Toledo (Spain). All patients provided informed consent prepared under the guidelines of the Research Ethics Committee at their respective hospital in Madrid (Spain).
For cells obtained from human biopsies, the same protocol was used except that papain solution was used 1:2.5 in HBSS for 10 minutes for meningeal disintegration and 1:10 in HBSS for 15 minutes for the tissue digestion, 25 cm[2] flasks were used, the medium was supplemented with 10 ng/ml of human PDGF-AA (Millipore) for 2 weeks and then incubated for 2 more weeks without growth factors before shaking and the shaking was carried out at 230 rpm instead of 250 rpm.
(§1) Purified OPCs were placed on coverslips coated with poly-L-lysine and laminin in 24-well tissue culture dishes at a density of 2 × 10^4 cells/well. To promote differentiation, the cells were maintained in the differentiation medium (described above) and PDE7-GSK3 or GSK3 inhibitors (VP3.15 or TDZD8; 1 μM) were added to the culture medium. Different controls were used for the dual or single inhibitors due to the active substance being dissolved in differing amounts of DMSO. After 5, 7 and 10 DIV the cells were fixed with 4% PFA for further immunocytochemical analysis. Anti-CNPase antibodies (1:200;Covance; Cat#SMI-91R), anti-MBP antibodies (1:200; Serotec; Cat#MCA4095) for detecting oligodendrocytes and anti-Olig2 antibodies (1:250; Millipore; Cat#AB9610) as a marker for all oligodendroglial stages were used. Ten random fluorescence digital images were taken in each coverslip with a DFC480 FX digital camera (Leica) coupled to a Leica DM5000 B microscope for quantification. Data were expressed as a mean ratio of differentiated oligodendrocytes (CNPase^+-Olig2^+ double positive cells) with respect to total Olig2^+ cells ± SEM or percentage of CNPase^+ cells respect to control ± SEM, in at least three independent experiments, except with human samples (two independent experiments).

[6] = system: GSK-3; parameters: method as in PMID 24437940; conditions: read-out: GSK-3 inhibition IC50; cited from earlier work
[7] = system: OPCs isolated from P0 mice; assay: Differentiation assay, murine OPCs; type: cell-based, mouse; conditions: murine P0 OPCs, 1 μM, 5, 7 and 10 DIV
Description: We isolated OPCs, as previously described. Briefly, a stock papain solution was prepared containing ([…]; Worthington Biochemical), L-cysteine (0.2 mg/ml; Sigma), and EDTA (0.2 mg/ml; Sigma) in Hank’s Balanced Salt Solution (HBSS; Invitrogen) without Ca^2+ and Mg[2]. Then, the cerebral cortices of P0 CD1 mice were dissected out and placed for 5 minutes at 37 °C in a medium containing the stock papain solution in HBSS with Ca^2+ and Mg^2+ (1:10; Invitrogen) in order to easily remove the meninges. Once meninges and choroid plexus were removed, the tissue was enzymatically dissociated for 5 minutes at 37 °C again by using the papain solution (1:10 in HBSS without Ca^2+ and Mg^2+) and the digested tissue was then filtered through a 100 μm nylon mesh strainer (BD Biosciences) and seeded on poly-L-ornithine-coated (Sigma) 75 cm^2 flasks in DMEM medium (Invitrogen) containing 10% foetal bovine serum (FBS; BioWhittaker) and 100 U/mL penicillin, 0.1 mg/mL streptomycin and 0.25 μg/ml Amphotericin B antibiotic antimycotic solution (Sigma). Cultures were maintained at 37 °C and 5% CO2, and the medium was changed every 3 days. When the cultures reached confluence, they were shaken overnight at 250 rpm and at 37 °C in order to detach the OPCs located on the top of the confluent astrocyte monolayer and the medium was then filtered through a 40μm nylon mesh strainer (BDBiosciences) and centrifuged at 900 rpm. Cells were seeded twice (45 minutes each) in bacterial grade Petri dishes (Sterilin) to remove microglial cells. The resulting enriched oligodendrocyte progenitor cell suspension was counted and seeded.
as §1

## Cn1sc(=O)n(Cc2ccccc2)c1=O [TDZD8, reference compound]
[1]
  OPC proliferation (BrdU+-Olig2+ cells): no changes
[2]
  remyelination (normalized myelination index): no effect
[3]
  PDE7 inhibition: does not inhibit PDE7
[3]; read-out: PDE7 inhibition IC50
  IC50: > 100000 nM
[4]
  OPC survival (Casp3+-A2B5+ apoptotic cells): increased OPC survival
[5]
  number of CNPase+-Olig2+ cells vs control (differentiation): did not show any effect
[6]
  IC50: 690 nM
[7]
  number of mature oligodendrocytes (CNPase+-Olig2+ cells) vs control: no effect
